Measured values as given in PMC7942396, “Drug Repurposing Screen for Compounds Inhibiting the Cytopathic Effect of SARS-CoV-2” (Frontiers in Pharmacology, 2021).
Read-outs that look alike come from different tables or passages of the source.

What was measured:
[1] = tested on: SARS-CoV-2 (USA_WA1/2020); test: microbe, parasite or virus in culture; assay type: cell-based; settings: for EC50: read-out: CPE EC50
Vero E6 cells = Vero E6 cells without virus; for CC50: read-out: Cytotox CC50
[2] = SARS-CoV-2 CPE assay, Vero E6 cells, confirmed anti-SARS-CoV-2 compounds
[3] = SARS-CoV-2 CPE assay, Vero E6 cells, efficacy
[4] = SARS-CoV-2 CPE assay, Vero E6 cells
[5] = […], DMSO 0%, no-virus control 100%, hit confirmation

| Molecule | EC50 [1, 2] [µM] | CPE % Efficacy [1, 3] [%] | % Cytotox (Vero E6 cells; cytotoxicity counter-assay) [%] | CC50 (Vero E6 cells; cytotoxicity counter-assay) [µM] | CPE % Efficacy [1, 4] [%] | EC50 [1, 4] [µM] | CPE % Efficacy [1, 5] [%] | EC50 [1] [µM] | % Cytotox (Vero E6 cells; 72 h) [%] |
| --- | --- | --- | --- | --- | --- | --- | --- | --- | --- |
| CC(=O)O[C@@H]1C[C@H]2C(C)(C)C(=O)C=C[C@]2(C)[C@H]2CC[C@]3(C)C(=CC(=O)O[C@H]3c3ccoc3)[C@@]21C [DEOXYGEDUNIN] | 11.2 | 107.7 | 0.0 | – | – | – | – | – | – |
| CC(C)(C)Cn1c(N)nc2ccc(-c3[nH]c(C(C)(C)C)nc3-c3ccc(F)cc3)nc21 [LY-2228820 (ralimetinib)] | 1.58 | 85.9 | 78.9 | 12.6 | – | – | – | – | – |
| Cc1ncc(NC(=O)c2cccc(C(F)(F)F)c2)cc1-c1cnc(OC2CCOCC2)c(N2CCOCC2)c1 [RAF-709] | – | – | 56.6 | 8.91 | 58.4 | 14.1 | – | – | – |
| COC(=O)CC[C@@H](C)[C@H]1CC[C@H]2[C@@H]3CC[C@@H]4C[C@H](OC(C)=O)CC[C@]4(C)[C@H]3C[C@H](O)[C@]12C (racemic) | – | – | 0.0 | – | 62.5 | 12.6 | – | – | – |
| CNC(=O)c1ccc2c(C(=Nc3cccc(CN(C)C)c3)c3ccccc3)c(O)[nH]c2c1 [NCGC00346543] | – | – | 22.6 | – | 94.9 | 12.6 | – | – | – |
| C/C(=N\NC(=S)N1CCC1)c1ccccn1 [NSC-319726] | 1.12 | 58.3 | 52.8 | 0.35 | – | – | – | – | – |
| Cl.O=C1Nc2nc(-c3c(O)cccc3OCC3CC3)cc([C@@H]3CCCNC3)c2CO1 [Bay-65-1942 hydrochloride] | – | – | 23.5 | 11.2 | 53.9 | 11.2 | – | – | – |
| CC(CN(C)C)CN1c2ccccc2Sc2ccc(C(F)(F)F)cc21 (stereo not shown) [Trifluomeprazine 2-butenedioate, reference compound] | – | – | – | – | – | – | 90.2 | 10 | <30 |
| Cn1nc(C(C)(C)C)cc1C(=O)N[C@@H](Cc1cccc(Cl)c1)C(=O)NCC#N [Cathepsin Inhibitor 1, reference compound] | – | – | – | – | – | – | 114.4 | 0.25 | <30 |
| CN1CN(c2ccccc2)C2(CCN(CCCC(=O)c3ccc(F)cc3)CC2)C1=O.Cl [N-Methylspiperone hydrochloride, reference compound] | – | – | – | – | – | – | 80.0 | 4.5 | <30 |
| O=S(=O)(NCC1CC1)c1ccc(Nc2nccc(N3CCCc4cc(O)ccc43)n2)cc1 [Pyrintegrin] | 0.79 | 76.3 | 70.3 | 3.98 | – | – | – | – | – |
| C[C@@H]1O[C@@H](O[C@H]2[C@H](OC(=O)[C@]34CCC(C)(C)C[C@H]3C3=CCC5[C@@]6(C)C[C@H](O)[C@H](O[C@@H]7O[C@H](CO[C@@H]8OC[C@H](O)[C@H](O)[C@H]8O)[C@@H](O)[C@H](O)[C@H]7O)C(C)(C)C6CC[C@@]5(C)[C@]3(C)C[C@H]4O)OC[C@@H](O)[C@@H]2O)[C@H](O)[C@H](O[C@@H]2OC[C@](O)(CO)[C@H]2O)[C@H]1O[C@@H]1OC[C@H](O)[C@H](O[C@@H]2OC[C@@H](O)[C@H](O)[C@H]2O)[C@H]1O (stereo partly shown) [NCGC00385321] | 2.4 | 105.7 | 35.4 | 2.4 | – | – | – | – | – |
| C/C=C(\C)C(=O)O[C@H]1C=C(CO)C(=O)[C@H](OC(C)=O)[C@H]1C(C)C [NCGC00180769] | 3.55 | 30.1 | 103.1 | 10 | – | – | – | – | – |
| Cn1nnnc1Sc1ncnc2scc(-c3cccc(S(C)(=O)=O)c3)c12 [NCGC00182390] | 4.47 | 57.8 | 63.9 | 8.91 | – | – | – | – | – |
| O=C(NCCCN1CCN(c2ccccc2F)CC1)c1ccc2nc(Cc3ccccc3)oc2c1 [NCGC00133175] | – | – | 25.5 | 15.8 | 95.1 | 14.1 | – | – | – |
| (-)-Indolactam V | 1.56 | 74.4 | 20.4 | 1.24 | – | – | – | – | – |
| C/C=C(\C)C(=O)O[C@H]1CC2C(=C1C)[C@H]1OC(=O)[C@](C)(O)[C@]1(O)[C@H](OC(=O)CCC)C[C@@]2(C)OC(C)=O (stereo partly shown) [NCGC00169033] | 2.77 | 63.3 | 48.4 | 4.39 | – | – | – | – | – |
| COc1cccc([C@@H](C)NCCCc2ccccc2Cl)c1 [NPS-R568] | 11.2 | 78.0 | 15.8 | 12.6 | – | – | – | – | – |
| C=C1Cc2c(Cl)cc3[nH]c4c5c3c2[C@@]2(O)[C@@H]1C[C@@H]2C(C)(C)O[C@H]5C1CC[C@@]2(O)[C@@]35O[C@@H]3[C@H]3OC(C)(C)[C@H]3O[C@H]5CC[C@]2(C)[C@@]41C (stereo partly shown) [NCGC00380694] | 2.99 | 50.6 | 19.8 | 4.74 | – | – | – | – | – |
| Cl.Cl.Clc1ccccc1CNCC1CCC(CNCc2ccccc2Cl)CC1 (stereo not shown) [AY 9944 dihydrochloride] | 3.16 | 41.0 | 48.2 | 12.6 | – | – | – | – | – |
| Cc1cc(N2CCN(C(=O)Oc3ccc(-c4ccccc4)cn3)CC2)c2ccccc2n1 [NCGC00386928] | – | – | 68.1 | 12.6 | 63.4 | 12.6 | – | – | – |
| Cl.Cl.O=S(=O)(c1cccc2ccccc12)n1ccc2ccc(N3CCN4CCCC4C3)cc21 (stereo not shown) [NPS ALX Compound 4a dihydrochloride] | – | – | 93.1 | 12.6 | 100.0 | 12.6 | – | – | – |

| Molecule | EC50 [1, 2] [µM] | CPE % Efficacy [1, 3] [%] | % Cytotox (Vero E6 cells; cytotoxicity counter-assay) [%] | CC50 (Vero E6 cells; cytotoxicity counter-assay) [µM] | CPE % Efficacy [1, 4] [%] | EC50 [1, 4] [µM] | CPE % Efficacy [1, 5] [%] | EC50 [1] [µM] | % Cytotox (Vero E6 cells; 72 h) [%] |
| --- | --- | --- | --- | --- | --- | --- | --- | --- | --- |
| NC(=O)c1cccc(-c2cc(Nc3ccc(OC(F)(F)F)cc3)ncn2)c1 [GNF-2] | – | – | 0.0 | – | 63.4 | 11.2 | – | – | – |
| CCCCN1[C@@H]2CC[C@H]1CC(OC(c1ccc(F)cc1)c1ccc(F)cc1)C2.Cl (stereo partly shown) [JHW 007 hydrochloride] | 7.08 | 87.4 | 38.8 | 12.6 | – | – | – | – | – |
| CS(=O)(=O)O.Cc1ncc(NC(=O)c2ccc(CN3CCN(C)CC3)c(C(F)(F)F)c2)cc1Nc1nccc(-c2cccnc2)n1 [Flumatinib mesylate] | – | – | 11.1 | 4.47 | 134.3 | 12.6 | – | – | – |
| CC(C)c1ccc(NC(=O)C(c2ccccc2)N(C)C(=O)Cc2c[nH]c3ccccc23)cc1 (stereo not shown) [PG-01] | 3.55 | 98.0 | 110.5 | – | – | – | – | – | – |
| COc1cccc2c1CCCC2CCCN1CCN(C2CCCCC2)CC1 (stereo not shown) [PB-28] | – | – | 19.5 | 12.6 | 88.6 | 11.2 | – | – | – |
| CCc1cc(-c2n[nH]c(C)c2-c2ccc3c(c2)OCCO3)c(O)cc1O [CCT-018159] | – | – | 34.2 | – | 74.6 | 14.1 | – | – | – |
| COc1cc(N2CCN(C)CC2)ccc1Nc1ncc2c(n1)N(C)c1ccccc1C(=O)N2 [XMD8-87] | – | – | 32.0 | – | 88.0 | 11.2 | – | – | – |
| COc1ccc2sc(NC(c3ccc(OC(F)F)cc3)c3ccc4cccnc4c3O)nc2c1 (stereo not shown) [KIN1408] | 0.89 | 69.8 | 77.9 | 0.71 | – | – | – | – | – |
| COc1cc(-c2cc(-c3ccc(N4CCNCC4)cc3)cnc2C)cc(OC)c1OC [LDN-214117] | – | – | 53.6 | 11.2 | 39.2 | 11.2 | – | – | – |
| Cc1cccc(Nc2nc(N[C@@H]3CCCC[C@@H]3N)ncc2C(N)=O)c1 [PRT-060318] | 11.2 | 56.9 | 45.2 | 12.6 | – | – | – | – | – |
| CN(C)S(=O)(=O)c1ccc(NC(=S)N2CCC(C(O)(c3ccccc3)c3ccccc3)CC2)cc1 [CYM 9484] | 11.2 | 30.8 | 13.8 | 19.9 | – | – | – | – | – |
| CCOc1ccc(-c2nc(-c3cccc4c3CCC4NCCO)no2)cc1OCC.Cl (stereo not shown) [CYM 5442 hydrochloride] | 11.2 | 134.3 | 0.0 | – | – | – | – | – | – |
| CC(NC(=O)[C@H](Cc1ccccc1)NC(=O)OCc1ccccc1)C(=O)CF (stereo partly shown) [Z-FA-FMK, reference compound] | – | – | – | – | – | – | 104.8 | 0.13 | <30 |
| CC1(C)CN2C(CSC(=NC3CCCCC3)NC3CCCCC3)=CSC2=N1.Cl.Cl [IT1t dihydrochloride, reference compound] | – | – | – | – | – | – | 96.3 | 3.5 | <30 |
| NC(=O)c1ccc2nc(-c3ccc(Oc4ccc(Cl)cc4)cc3)[nH]c2c1 [BML-277] | – | 73.6 | 33.9 | – | – | – | – | – | – |
| Cc1cc(CC(C)CC(C)(C)C)n(O)c(=O)c1.NCCO (stereo not shown) [Piroctone Olamine] | 4.47 | 61.2 | 46.6 | 1.78 | – | – | – | – | – |
| 10058-F4 | – | – | 34.2 | – | 62.2 | 12.6 | – | – | – |
| C/C(=N\NC(=O)c1cccc(S(=O)(=O)N2CCOCC2)c1)c1cc(Cl)ccc1O [SP2509] | 1.26 | 42.0 | 67.4 | 1 | – | – | – | – | – |
| CC1(N2CCC(n3c([C@@H]4CCCNC4)nc4ccccc43)CC2)CCCCCCC1 [MCOPPB, reference compound] | – | – | – | – | – | – | 85.6 | 3.5 | <30 |
| CC(C)c1cnn2c(NCc3ccccc3)cc(NCCCCCCN)nc12 [BS-181] | 10 | 83.4 | 32.0 | – | – | – | – | – | – |
| O=C(NCc1ccccc1)[C@H](Cc1ccccc1)NC(=O)[C@H]1O[C@@H]1C(=O)NCCc1ccc(O)cc1 [CAA-0225, reference compound] | – | – | – | – | – | – | 99.3 | 0.2 | <30 |
| CN(C)CC(=O)N1CCC(c2ccc(NC(=O)c3nc(C#N)c[nH]3)c(C3=CCCCC3)c2)CC1 [JNJ-28312141] | – | – | 60.9 | 12.6 | 37.8 | 14.1 | – | – | – |
